Assay results published in patent publication US9371521B2, “Substituted pyrazinedithiol reducing agents” (Wisconsin Alumni Research Foundation, priority 2014, dated 2016).
Converted amounts (≈) assume the structure as drawn. “And” between values parts separate entries of the source, which are not always exact repeats. Identical values can stand only once. Like-named read-outs stand apart in the source and are kept apart here.

Key:
[1] = literature value; cited from earlier work
[2] = literature value [37]; cited from earlier work
papain-Cys25-S—S—CH3 = target: T1, papain-Cys25-S—S—CH3 (Carica papaya, UniProt P00784); test: Reactivation of papain (reduction of active-site mixed disulfide); format: biochemical; settings: for kobs for reduction of papain-Cys25-S-S-CH3: 0.10 M imidazole-HCl buffer, pH 7.0, EDTA 2 mM
T1 construct: Papain (lyophilized powder from papaya latex); purchased Sigma-Aldrich (St. Louis, Mo.); host or cells: papaya latex (natural source)
T1 sequence (P00784 134-345): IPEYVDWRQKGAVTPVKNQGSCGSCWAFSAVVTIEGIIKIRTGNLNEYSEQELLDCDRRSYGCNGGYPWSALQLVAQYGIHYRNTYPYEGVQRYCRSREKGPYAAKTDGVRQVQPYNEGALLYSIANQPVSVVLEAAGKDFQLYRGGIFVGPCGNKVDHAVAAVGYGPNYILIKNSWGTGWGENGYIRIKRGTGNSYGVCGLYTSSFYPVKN
Procedure: (§1) Commercial reagents were used without further purification. Dithiothreitol (DTT) was from Research Products International (Mt. Prospect, Ill.). […].
Papain was inactivated by forming a mixed disulfide upon treatment of its active-site cysteine (Cys25) with S-methyl methanethiosulfonate following a procedure reported previously. A 1.25 mL solution of papain-Cys25-S—S—CH3 (4.4×10^−6 M) in a degassed 0.10 M imidazole-HCl buffer, pH 7.0, containing EDTA (2 mM) was placed in a 1.5-mL LoBind Eppendorf tube. At time t=0, 10 μL of a 1 mM stock solution of BMMP was added, and a timer was started. […] A unit of protein is defined as the amount of enzyme required to produce 4-nitroaniline at a rate of 1 μmol/min. The units of active papain at each time point were calculated by using an extinction coefficient for 4-nitroaniline of ε=8,800 M^−1cm^−1 at 410 nm. […] Y=enzymatic activity (%) at any time point was determined by dividing the number of active units of enzyme by the possible number of units in the solution, and plotted in FIG. 2A. To determine the value of the second-order rate constant (kobs) for the reducing agents, the second order rate equation (eq 4) was transformed into eq 5, which was fitted to the data with the program Prism 5.0.

[3] = target: T2, creatine kinase-Cys283-S-S-G (Oryctolagus cuniculus, UniProt P00563); test: Reactivation of creatine kinase (reduction of mixed disulfide with glutathione); format: biochemical, rabbit; settings: for kobs for reduction of creatine kinase-Cys283-S-S-G: 0.10 M imidazole-HCl buffer, pH 7.0, EDTA 2 mM
T2 construct: creatine kinase (lyophilized powder from rabbit muscle); purchased Sigma-Aldrich (St. Louis, Mo.); host or cells: rabbit muscle (natural source)
Procedure: as §1
[21, 23] Enzymatic activity (%) at particular time points was calculated by dividing the number of active units of enzyme by the possible number of units in solution, and was plotted in FIG. 2B. Values of kobs (Table 2) were determined using eq.

[4] = Determination of BMMP solubility in buffered water (1H NMR); format: physicochemical; settings: aqueous buffer, thermodynamic from solid; 50 mM sodium phosphate buffer, pH 7.0
Procedure: A 20 mM stock solution of 2-butyne-1,4-diol (an ^1H NMR standard) was prepared in 50 mM sodium phosphate buffer, pH 7.0. BMMP was added to a solution containing 1 mL of this buffer and 0.1 mL of D2O until the solution was saturated completely. The mixture was sonicated to ensure complete dissolution and filtered into an NMR tube, and its spectrum was acquired. The solubility of BMMP was determined to be (64±14) mM by integration of the ^1H NMR peak areas of the aryl CH and methylene CH2SH protons for BMMP and the CH2OH peak for 2-butyne-1,4-diol.

[5] = Reduction kinetics on oxidized βME; format: physicochemical; settings: for kobs for reduction of βMEox: 5 mM each
[6] = Reduction potential from equilibrium reaction with oxidized DTT (HPLC, Nernst equation); format: physicochemical; settings: for Keq of equilibrium reaction with DTTox / Disulfide E°′ (reduction potential of oxidized form): 50 mM potassium phosphate buffer, pH 7.0, EDTA 2 mM, 24 h; for Disulfide E°′ (reduction potential of oxidized form): assuming −0.327 V for DTT, this work
[7] = cited from earlier work
[8] = Determination of thiol pKa values (pH titration monitored by UV absorbance at 238 nm); format: physicochemical
Procedure: Thiol pKa values were determined using a Varian Cary 60 UV-Vis spectrophotometer. Kinetic studies on proteins were carried out using a Varian Cary 400 Bio UV-Vis spectrometer with a Cary temperature controller at the Biophysics Instrumentation Facility at Madison (BIF). All NMR spectra were acquired at ambient temperature with a Bruker DMX-400 Avance spectrometer and a Bruker Avance III 500ii with cyroprobe spectrometer at the National Magnetic Resonance Facility at Madison (NMRFAM), and were referenced to TMS or residual protic solvent.
The thiol pKa values are determined by following a procedure reported previously that exploits the elevated absorbance of the deprotonated thiolate at 238 nm.
For BMMP determination, in eq 1, CT is the total thiol concentration, εSH^SH is the extinction coefficient of the doubly protonated form of BMMP, εSH^S- is the extinction coefficient of the singly protonated form of BMMP, and εS-^S- is the extinction coefficient of the doubly deprotonated form of BMMP.
For comparison, the thiol pKa values for DMH were determined in a similar fashion.

[9] = target: T2, creatine kinase-Cys283-S-S-G; settings: literature [23]; cited from earlier work
[10] = pH 5.0, 50 mM sodium acetate buffer
[11] = pH 7.0, 50 mM potassium phosphate buffer
[12] = Thiol pKa (second value, in parentheses)

T2 sequence (P00563 whole entry): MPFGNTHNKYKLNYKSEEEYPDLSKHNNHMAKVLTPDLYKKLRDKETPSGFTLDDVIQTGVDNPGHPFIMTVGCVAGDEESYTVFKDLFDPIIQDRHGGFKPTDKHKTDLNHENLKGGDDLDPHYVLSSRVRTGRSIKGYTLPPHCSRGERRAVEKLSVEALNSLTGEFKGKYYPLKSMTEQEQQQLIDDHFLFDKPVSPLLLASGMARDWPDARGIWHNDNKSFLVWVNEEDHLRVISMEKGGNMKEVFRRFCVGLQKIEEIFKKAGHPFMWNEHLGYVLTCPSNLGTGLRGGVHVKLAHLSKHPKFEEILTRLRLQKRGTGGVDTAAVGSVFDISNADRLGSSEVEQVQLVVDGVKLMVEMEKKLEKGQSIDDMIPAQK

## OC(CS)[C@H](O)CS (mixture of isomers)
[1]
  Disulfide E°′ (reduction potential of oxidized form): −0.327 V^b

## Cc1cnc(C)cn1 [2,5-dimethylpyrazine]
[2]
  pKa of the conjugate acid: 2.1

## SCc1nccnc1CS [BMMP, 2,3-bis(mercaptomethyl)pyrazine]
papain-Cys25-S—S—CH3
  kobs for reduction of papain-Cys25-S-S-CH3: 1139 ± 62 M⁻¹ s⁻¹
papain-Cys25-S—S—CH3; pH 7.0
  kobs^BMMP/kobs^DTT, reduction of papain Cys25-S—S—CH3: 13.1 and 13
[3]
  kobs for reduction of creatine kinase-Cys283-S-S-G: 476 ± 34 M⁻¹ s⁻¹
[3]; pH 7.0
  kobs^BMMP/kobs^DTBA, reduction of creatine kinase Cys283-S—S-glutathione: 6.8 and 7
  kobs^BMMP/kobs^DTT, reduction of creatine kinase Cys283-S—S-glutathione: 5.8 and 6
[4]
  solubility: 64 ± 14 mM (≈ 11 mg/mL)
[5]; BMMP pH 5.0 vs DTT pH 7.0
  Observed rate of reduction of βMEox at pH 5.0 compared with DTT at pH 7.0: comparable
[5]; pH 5.0
  kobs^BMMP/kobs^DTBA, reduction of βMEox: 3.6 and 4
  kobs^BMMP/kobs^DTT, reduction of βMEox: 14.1 and 14
[5]; [10]
  kobs for reduction of βMEox: 0.0183 ± 0.0007 M⁻¹ s⁻¹
[5]; pH 7.0
  kobs^BMMP/kobs^DMH, reduction of βMEox: 1.8
  kobs^BMMP/kobs^DTBA, reduction of βMEox: 3.2 and 3
  kobs^BMMP/kobs^DTT, reduction of βMEox: 11.4 and 11
[5]; [11]
  kobs for reduction of βMEox: 1.02 ± 0.07 M⁻¹ s⁻¹
[6]
  Keq of equilibrium reaction with DTTox: 0.137±0.036
  Disulfide E°′ (reduction potential of oxidized form): −0.301±0.003 V
[6]; reduced BMMP + oxidized DTT vs oxidized BMMP + reduced DTT
  Free energy by which equilibrium favors reduced BMMP and oxidized DTT: -1.2 kcal/mol

## CN(C(=O)CS)N(C)C(=O)CS [DMH, N,N′-dimethyl-N,N′ bis(mercaptoacetyl)hydrazine, reference compound]
[7]; literature value
  Thiol pKa (first, lower value): 7.6
  Thiol pKa (second value, in parentheses): 8.9
[5]; pH 7.0
  Rate of reduction of βMEox compared with other dithiols: faster than did DTT or DTBA but slower than did BMMP
[5]; [11]
  kobs for reduction of βMEox: 0.56 ± 0.04 M⁻¹ s⁻¹
[6]
  Keq of equilibrium reaction with DTTox: 0.0065±0.0020
  Disulfide E°′ (reduction potential of oxidized form): −0.262±0.004 V and −0.262±0.003 V
[8]; Thiol pKa (first, lower value)
  pKa: 8 ± 0.2
[8]; [12]
  pKa: 9.1 ± 0.1

## N[C@H](CS)CCS [DTBA, dithiobutylamine, reference compound]
papain-Cys25-S—S—CH3
  kobs for reduction of papain-Cys25-S-S-CH3: 950 ± 51 M⁻¹ s⁻¹
[3]
  kobs for reduction of creatine kinase-Cys283-S-S-G: 70 ± 2 M⁻¹ s⁻¹
[9]
  Rate of reduction of creatine kinase mixed disulfide compared with DTT: comparable to that of DTT
[5]; [10]
  kobs for reduction of βMEox: 0.0051 ± 0.0004 M⁻¹ s⁻¹
[5]; [11]
  kobs for reduction of βMEox: 0.32 ± 0.02 M⁻¹ s⁻¹

## O[C@H](CS)[C@H](O)CS [DTT, dithiothreitol, reference compound]
papain-Cys25-S—S—CH3
  kobs for reduction of papain-Cys25-S-S-CH3: 87 ± 3 M⁻¹ s⁻¹
[7]; neutral pH
  Fraction in the reactive thiolate form: less than 1%
[3]
  kobs for reduction of creatine kinase-Cys283-S-S-G: 82 ± 3 M⁻¹ s⁻¹
[1]
  Disulfide E°′ (reduction potential of oxidized form): −0.327 V
[5]; [10]
  kobs for reduction of βMEox: 0.0013 ± 0.0001 M⁻¹ s⁻¹
[5]; [11]
  kobs for reduction of βMEox: 0.090 ± 0.005 M⁻¹ s⁻¹

## CN(C(=O)CS)N(C)C(=O)CS [drawing 5]
[6]
  Disulfide E°′ (reduction potential of oxidized form): −0.262 ± 0.004 V^c
[8]
  Thiol pKa (first, lower value): 8.0 ± 0.2
  Thiol pKa (second value, in parentheses): 9.1 ± 0.1

## N[C@H](CS)CCS [drawing 6]
[1]
  Disulfide E°′ (reduction potential of oxidized form): −0.317 V^d

## SCc1nccnc1CS [drawing 7]
[6]
  Disulfide E°′ (reduction potential of oxidized form): −0.301 ± 0.003 V^c
[8]; Thiol pKa (first, lower value)
  pKa: 7.6 ± 0.1
[8]; [12]
  pKa: 9
